Laboratory results as given in ChEMBL document CHEMBL4028816, “Discovery of a potent inhibitor of MELK that inhibits expression of the anti-apoptotic protein Mcl-1 and TNBC cell growth” (Bioorg Med Chem, 2017).
One block for each compound: values may come before it. The source made the active and inactive calls. The rule behind the calls is not given here.

Assays:
[1] = target: AMP-activated protein kinase, AMPK; assay: Inhibition of AMPK (unknown origin) using SAMS peptide as substrate measured after 30 mins in presence of [gamma32P]ATP by liquid scintillation counting method; set-up: species or system Homo sapiens
[2] = target: Mitogen-activated protein kinase 1 (Homo sapiens, UniProt P28482); assay: Inhibition of ERK2 (unknown origin) using Ets-1 as substrate measured after 30 mins in presence of [gamma32P]ATP by liquid scintillation counting method
SUM-159-PT = assay: Antiproliferative activity against human SUM159 cells up to 20 uM after 72 hrs by CellTitre-Blue assay; type: functional, cell-based
MCF-10A = assay: Antiproliferative activity against human MCF10A cells at 10 uM after 72 hrs by CellTitre-Blue assay; type: functional, cell-based
BT-549 = assay: Antiproliferative activity against human BT549 cells up to 20 uM after 72 hrs by CellTitre-Blue assay; type: functional, cell-based
HCC70 = assay: Antiproliferative activity against human HCC70 cells up to 20 uM after 72 hrs by CellTitre-Blue assay; type: functional, cell-based
[3] = target: Maternal embryonic leucine zipper kinase (Homo sapiens, UniProt Q14680); assay: Inhibition of His6-tagged MELK catalytic domain (1 to 340 residues) (unknown origin) expressed in Escherichia coli BL21 (DE3) cells using Bcl-GL as substrate measured after 30 mins in presence of [gamma32P]ATP by liquid scintillation counting method
Maternal embryonic leucine zipper kinase, sequence (Q14680 whole entry, the tested form may be a part): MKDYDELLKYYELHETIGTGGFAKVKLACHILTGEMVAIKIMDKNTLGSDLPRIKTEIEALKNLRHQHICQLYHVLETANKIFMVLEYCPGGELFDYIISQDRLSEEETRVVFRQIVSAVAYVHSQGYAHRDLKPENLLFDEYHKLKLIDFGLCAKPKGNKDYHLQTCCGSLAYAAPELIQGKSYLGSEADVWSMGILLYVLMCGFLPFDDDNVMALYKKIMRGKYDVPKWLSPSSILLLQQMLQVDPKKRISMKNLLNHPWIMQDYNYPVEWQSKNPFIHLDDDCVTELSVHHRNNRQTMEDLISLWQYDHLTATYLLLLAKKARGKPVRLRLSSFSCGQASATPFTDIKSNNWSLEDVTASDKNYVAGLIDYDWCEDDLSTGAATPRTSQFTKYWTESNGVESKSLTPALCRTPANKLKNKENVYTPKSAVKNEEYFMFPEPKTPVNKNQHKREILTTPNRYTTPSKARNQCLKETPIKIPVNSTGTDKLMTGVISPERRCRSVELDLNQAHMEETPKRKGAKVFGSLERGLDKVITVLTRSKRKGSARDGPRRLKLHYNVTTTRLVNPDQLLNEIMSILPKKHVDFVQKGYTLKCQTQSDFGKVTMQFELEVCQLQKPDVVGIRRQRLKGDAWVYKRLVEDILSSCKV

Mitogen-activated protein kinase 1, sequence (P28482 whole entry): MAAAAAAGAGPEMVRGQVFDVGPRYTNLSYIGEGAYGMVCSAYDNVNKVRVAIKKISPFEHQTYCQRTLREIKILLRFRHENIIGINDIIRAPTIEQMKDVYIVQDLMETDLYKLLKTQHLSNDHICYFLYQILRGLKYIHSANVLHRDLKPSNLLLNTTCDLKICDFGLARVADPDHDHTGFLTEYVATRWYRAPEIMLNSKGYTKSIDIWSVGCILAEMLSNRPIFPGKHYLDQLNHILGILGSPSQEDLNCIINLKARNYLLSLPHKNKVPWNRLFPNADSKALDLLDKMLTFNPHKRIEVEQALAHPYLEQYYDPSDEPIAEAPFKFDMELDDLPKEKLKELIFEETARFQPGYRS

Ki [1]: 0.0042 µM
Compound: CN1CCN(CC(=O)N(C)c2ccc(N/C(=C3\C(=O)Nc4ccccc43)c3ccccc3)cc2)CC1

Ki [2]: 3 µM
Ki [1]: 0.0092 µM
Compound: COC(=O)c1ccc2c(c1)/C(=C(/Nc1ccc(N(C)C(=O)CN3CCN(C)CC3)cc1)c1ccccc1)C(=O)N2
Activity (SUM-159-PT): Active
Activity (MCF-10A): inactive
Activity (BT-549): Active
Activity (HCC70): Active

IC50 [3]: > 5 µM
Ki [3]: > 0.65 µM
Compound: CN1CCN(CC(=O)N(C)c2ccc(N/C(=C3\C(=O)Nc4cc(C(=O)NCCCN)ccc43)c3ccccc3)cc2)CC1

Ki [2]: 19 µM
Ki [1]: 0.0049 µM
Compound: CN1CCN(CC(=O)N(C)c2ccc(N/C(=C3\C(=O)Nc4ccc(C(=O)O)cc43)c3ccccc3)cc2)CC1
